Source: article PMC12715805, “Screening apelin analogues and a small molecule agonist as effective cardiovascular therapeutics against reperfusion injury” (RSC Medicinal Chemistry, 2025)

Columns and labels:
[1] = G-protein-biased agonists; cited from earlier work
Excerpt: The therapeutic potential of biased and unbiased agonists for the apelinR remains an area of active investigation, particularly regarding their effects on BP regulation. […] In contrast, the two non peptidic apelinR agonists, BMS-98622 ...

apelinR / β-arrestin2 = molecular target: T1, apelinR / β-arrestin2 (Homo sapiens, UniProt P35414); assay: ebBRET β-arrestin2 recruitment; assay type: cell-based; conditions: HEK293 cells transfected with apelinR, β-arrestin2-RlucII, rGFP-CAAX; 10 min at 37 °C; mean ± SEM of 5 to 6 independent experiments; read-out: β-arr2 recruitment log EC50 (converted)
T1 sequence (P35414 1-380): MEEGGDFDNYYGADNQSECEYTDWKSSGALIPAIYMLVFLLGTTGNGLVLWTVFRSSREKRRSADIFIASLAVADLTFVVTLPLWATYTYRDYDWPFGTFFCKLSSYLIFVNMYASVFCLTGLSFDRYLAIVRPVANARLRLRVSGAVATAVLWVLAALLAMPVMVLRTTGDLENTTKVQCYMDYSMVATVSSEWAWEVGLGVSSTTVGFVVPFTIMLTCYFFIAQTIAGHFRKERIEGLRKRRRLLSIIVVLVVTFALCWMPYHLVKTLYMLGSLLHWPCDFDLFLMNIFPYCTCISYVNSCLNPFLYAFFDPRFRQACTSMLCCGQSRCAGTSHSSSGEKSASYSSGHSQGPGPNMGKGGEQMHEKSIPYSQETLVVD

human apelinR = molecular target: T2, human apelinR (Homo sapiens, UniProt P35414); assay: ApelinR radioligand binding experiment (competition with [125I]-(Nle11,Tyr13) apelin-13); conditions: Fig. 1; membranes of CHO cells stably expressing hApelinR; 0.2 nM [125I]-(Nle11,Tyr13) apelin-13; 3 h at 20 °C; n = 4 to 6 independent experiments in duplicate; read-out: Binding affinity IC50 ± SEM
T2 construct: expressed in transfected cells; crude membrane preparations
T2 sequence (P35414 1-380): T1 sequence (P35414 1-380)

[2] = tested on: isolated mouse heart (ischemia–reperfusion injury); assay: Ex vivo Langendorff heart perfusion with ischemia–reperfusion; conditions: 1 μM in perfusion buffer for first 10 min of reperfusion after 30 min ischemia; compared to placebo; one-way ANOVA, Dunnett
[3] = tested on: wild-type male mice (C57BL/6); assay: Blood pressure lowering assay in anesthetized mice; assay type: in vivo, mouse; conditions: 0.5 μmol kg^−1 infusion during 5 min via jugular vein; anesthetized wild-type male C57BL/6 mice; compared to vehicle control
Description: The metabolically stable apelin analogues from each isoform, CbzPEG6–NMeLeu17A2 and NMeLeu13A2 along with the small molecule agonist, BMS-986224 (0.5 μmol kg^−1 infusion during 5 min for each compound), were tested for their BP lowering activity in anesthetized wild-type male mice (C57BL/6, 24–30 g). […] In contrast, the hypotensive effect of CbzPEG6–NMeLeu17A2 was observed immediately after infusion. This analogue reduced mean arterial pressure (MAP) by approximately 50% during the experiment, with the effect sustained for more than 30 minutes post-administration. Apelin can act on the endothelial layer of vasculature, leading to systemic changes in blood pressure by increasing the synthesis of nitric oxide (NO).[5] The effect of CbzPEG6–NMeLeu17A2 on […], which decreases the […] resistance by increasing eNOS activation and NO production through the activation of the PI3K/Akt signalling pathway on endothelial cells like other apelin analogues we tested in the previous studies.[5,11]
The blood pressure measurement and apelin injection method has been described in our previous research.[43] During the blood pressure testing, mice aged 12–14 weeks were anesthetized with 1.5% isoflurane in oxygen and monitored throughout the experiment. The blood pressure was measured using a PV loop catheter (model 1.2F, Transonic) […] into the left carotid artery. The monitor system (LabScribe 2.0. Scisense) recorded aortic blood pressure and heart rate. After a 20-minute baseline measurement, CbzPEG6–NMeLeu17A2, NMeLeu13A2, RI13, RI13A2, RI17, RI17A2, and BMS-986224 (0.5 μmol […] body weight) were diluted in saline and consistently infused for 5 min via the right jugular vein. For BMS-986224, 0.1% DMSO was added to saline to help with dilution. Blood pressure was continuously recorded for 60 minutes post-infusion.
3. Effects of APJ agonists on blood pressure
Figure S3. Different effects of apelin analog and receptor agonist on blood pressure and ischemia-reperfusion injury. A) the effect of CbzPEG6–NMeLeu17A2 (n=3) on mean arterial blood pressure (MAP), B) the effect of apelin 13 analog, NMeLeu13A2, on MAP (n=4). The effect of apelin 13 analog reverse enantiomers, C) RI13 (n=4) and D) RI13A2 (n=4), on MAP. The effect of apelin 17 reverse enantiomers, E) RI17 (n=4) and F) RI17A2 (n=4) on MAP. G) The effect of small molecule apelin receptor agonist BMS-986224 on blood pressure (n=4). The MAP recording between 50 and 60 minutes has been averaged and compared with their controls (placebo (n=4)). The vehicle for BMS-986224 is 0.1% DMSO (n=3). The arrow indicates the time when analogs were introduced. Values mean ±SEM and ****P<0.0001, compared to the control group.
(1 picture or pasted object on this page, not shown here)

rats = conditions: cited from earlier work
Excerpt: Another avenue being investigated is the use of small molecule as agonists for the apelinR, such as, Bristol Myers Squibb's BMS-986224,[26,27] Amgen's AMG986,[28] and Davenport's CMF-019.[29] […] In contrast, the two non peptidic apelinR agonists, BMS-98622 ...

apelinR / β-arrestin1 = molecular target: T3, apelinR / β-arrestin1 (Homo sapiens, UniProt P35414); assay: ebBRET β-arrestin1 recruitment; assay type: cell-based; conditions: HEK293 cells transfected with apelinR, β-arrestin1-RlucII, rGFP-CAAX; 10 min at 37 °C; mean ± SEM of 5 to 6 independent experiments; read-out: β-arr1 recruitment log EC50 (converted)
T3 sequence (P35414 1-380): T1 sequence (P35414 1-380)

apelinR / human Gαi1 = molecular target: T4, apelinR / human Gαi1 (Homo sapiens, UniProt P35414); assay: ebBRET Gαi1 activation; assay type: cell-based; conditions: HEK293 cells transfected with apelinR, human Gαi1, Rap1GAP-RlucII, rGFP-CAAX; 10 min at 37 °C; mean ± SEM of 5 to 6 independent experiments; read-out: Gαi1 activation log EC50 (converted)
T4 sequence (P35414 1-380): T1 sequence (P35414 1-380)

apelinR / human Gαi2 = molecular target: T5, apelinR / human Gαi2 (Homo sapiens, UniProt P35414); assay: ebBRET Gαi2 activation; assay type: cell-based; conditions: HEK293 cells transfected with apelinR, human Gαi2, Rap1GAP-RlucII, rGFP-CAAX; 10 min at 37 °C; mean ± SEM of 5 to 6 independent experiments; read-out: Gαi2 activation log EC50 (converted)
T5 sequence (P35414 1-380): T1 sequence (P35414 1-380)

apelinR = molecular target: apelinR; parameters: method as in PMID 33663236; conditions: cited from earlier work

EC50 (apelinR / β-arrestin2) [nM]	IC50 (human apelinR) [nM]	EC50 (apelinR / β-arrestin1) [nM]	EC50 (apelinR / human Gαi1) [nM]	EC50 (apelinR / human Gαi2) [nM]	Compound	vasodilation (in words) [1]	cardioprotective effect / cardiac function recovery after ischemia–reperfusion (LVDP, RPP, max dP/dt, min dP/dt; in words) [2]	hypotensive effect (BP lowering activity, in words) [3]	change in BP in a myocardial infarction (MI) rat model and a hypertension-induced cardiac dysfunction rat model (in words) (rats; MI rat model, hypertension-induced cardiac dysfunction rat model)	BP in anesthetized normotensive rats (in words) (rats; anesthetized normotensive rats, at the beginning of the infusion)	cardiac effects and blood pressure in a rat pressure–volume loop model (in words) (rats; rat pressure–volume loop model)	Kd (apelinR) [nM]
–	–	–	–	–	CCC(CC)n1c(Cc2cccs2)nc2cc(C(=O)N[C@H](CC(=O)O)CC(C)C)ccc21 [CMF-019]	demonstrated vasodilation	–	–	–	–	–	–
8.91	16.4 ± 5.42	10.7	0.102	0.11	CCOCc1nc(O)c(-c2nnc(Cc3ccc(Cl)cn3)o2)c(O)c1-c1c(OC)cccc1OC [BMS-986224, reference compound]	–	failed to show significance in cardiac function recovery	no hypotensive effect	do not induce any change in BP	slight but significant decrease in BP	positive cardiac effects without significantly lowering blood pressure	0.3
